Experimental findings from ChEMBL document CHEMBL3507680, “University of Dundee, Gates Library screen for HepG2 cell viability” are described below.

A short description of the series: Human HepG2 cell viability assay in 384 well format. The settings on record: HepG2 cells, read-out: Inhibition. Also noted: dose 125 nL, time 70.5 hour; cytotoxicity at 70.5 h: concentration not given beside the values. It is filed as toxicity, cell-based.
For `Cc1csc(CN(C)C2CCN(c3sccc3C#N)C2=O)n1` (centres undefined), the cytotoxicity at 70.5 h worked out at 16%.

Regarding `CC(=O)N1CCO[C@@H]2CN(Cc3ccccc3F)C[C@@H]2C1`, the cytotoxicity at 70.5 h was -5.88%. The result for `COC[C@@H]1CCCN1C(=O)CCc1c(C)nn(C)c1C` reads -2.05%; that for `COc1cc(N2CC[C@@H]3[C@@H](CC2)OCCN3CC2CC2)ncn1`, -4.1%; that for `CCCn1c(C)c(CC(=O)N(C)CC(=O)OC)c2c1CC(C)(C)CC2=O`, -3.68%. In the case of `CCNC(=O)C1(Cc2cc(-c3ccccc3)no2)CCCN(C)C1` (centres undefined), the cytotoxicity at 70.5 h was -5.43%. Then `CC(=O)c1c(F)cccc1NCC(O)c1ccc(F)c(F)c1` (centres undefined), with -12.6%; and `CCN(c1ccc(C(=O)N2CCCC2)cc1)S(=O)(=O)CC`, with -10.8%. The result for `O=C(Nc1cn[nH]c1)N1CCN(CCSc2ccccc2)CC1` reads 1.53%. Then `O=C(c1cnco1)N1CCC(Cc2cnc3ccccc3c2)CC1`, with -1.49%; and `CC(O)(CN1CCC2(CC1)OCCO2)c1cccc(C(F)(F)F)c1` (centres undefined), with -4.13%; and `CC(C)CSc1ccc(-n2cccn2)nn1`, with 27.6%. Turning to `N#CCCCS(=O)(=O)N1CCC(CSc2ccccc2)C1` (centres undefined), the cytotoxicity at 70.5 h was -9.53%. For the compound `O=C(c1ncn2c1CNS(=O)(=O)c1ccccc1-2)N1CCOCC1`, the cytotoxicity at 70.5 h came to 13.4%. Then `Cc1ccnc(N2Cc3cnn(Cc4ccc(F)cc4)c3C2)n1`, with 15.1%; and `COc1cc(OC)nc(N2CCCC(c3nccn3CCN(C)C)C2)n1` (centres undefined), with 30.4%; and `O=C(NCc1ccccc1)[C@H]1C[C@@H]2CN(S(=O)(=O)C3CC3)C[C@H]1O2`, with -10.1%.

On to `Cc1nc(CN2CCC(N(C)Cc3noc(C(C)C)n3)C2)oc1C` (centres undefined), for which the cytotoxicity at 70.5 h came out at 10.7%. For `Cc1noc(C(C)N(C)CC(=O)NCCc2ccc(Cl)cc2)n1` (centres undefined), the cytotoxicity at 70.5 h was determined as 24.6%. The result for `Cc1ncncc1C(=O)N1CCCC(n2cccn2)C1` (centres undefined) reads 8.65%; that for `CN(C)[C@@H]1CN(Cc2ccccn2)C[C@H]1c1cn(C)c2ccccc12`, 12%; that for `CN(C)C(CNC(=O)c1[nH]nc(C2CC2)c1Br)C1CC1` (centres undefined), -5.45%. The result for `Cn1cnnc1C1CCCN(C(=O)NCCc2ccccn2)C1` (centres undefined) reads -4.27%; that for `COc1c(C)cnc(CN2CCn3c(C)nnc3C2)c1C`, -3.41%; that for `CC(=O)N(C/C=C/c1ccccc1)CCO`, 7.41%.

On to `CC(C)NC(=O)[C@H]1C[C@H]2NCCO[C@@H]2C1`, for which the cytotoxicity at 70.5 h turned out to be 3.88%. Then `NC(=O)N1CCCC(C(=O)NCCOc2ccc(F)cc2F)C1` (centres undefined), with 0.645%; and `Cc1noc(CS(=O)(=O)c2cc(F)ccc2F)n1`, with -8.49%; and `CC(C)(NCc1ccc(C#N)cc1)c1ccc2c(c1)OCO2`, with 12.3%.

For `O=C1N(CC2CC2)CCC12CCN(c1ncccn1)CC2`, the cytotoxicity at 70.5 h was -3.31%. The result for `CC(C)(C)n1ncc2c1NC(=O)CC2c1cccc(O)c1` (centres undefined) reads -4.31%; that for `CC(=O)N1CC[C@@H]2O[C@H](C(=O)Nc3nc(C)cs3)C[C@@H]21`, -3.43%; that for `CNC(=O)[C@H]1C[C@@H]2CN(C(=O)c3ccncc3)C[C@@H]2N1S(C)(=O)=O`, 22.4%. Then `CS(=O)(=O)NCCC1CCCN(Cc2ccccc2F)C1` (centres undefined), with -7.9%; and `COc1ccc(C)cc1S(=O)(=O)N[C@H]1CN(C(C)=O)C[C@@H]1C1CC1`, with -7.75%; and `Cn1ccnc1-c1noc(NCc2ccc3c(c2)OCCO3)n1`, with 8.69%. For the compound `COC(=O)[C@@H](NC(=O)c1coc(COc2cccc(F)c2F)n1)C(C)C`, the cytotoxicity at 70.5 h was -11.7%. Then `CN(C)S(=O)(=O)N1C[C@H]2CCC[C@@]2(COc2cccnc2)C1`, with -5.8%. Then `Cc1nn(Cc2ccc(F)cc2)c2[nH]nc(N)c12`, with -9.36%; and `COc1ccccc1[C@@H]1CN(Cc2nccn2C)C[C@H]1C(=O)O`, with -3.84%. The result for `COCCN(C)C[C@H]1CC[C@@H](Cc2ccc3c(cnn3C)c2)O1` reads -6.52%; that for `CSCC(=O)N[C@H]1CN(CC2CCOCC2)C[C@@H]1c1ccccc1`, -4.95%. In the case of `CS(=O)(=O)NC(=O)c1ccn(-c2ccccc2Cl)n1`, the cytotoxicity at 70.5 h is -1.86%. Then `CNC(=O)[C@@]12CCO[C@@H]1CCN(S(=O)(=O)c1cccnc1)C2`, with -13.7%; and `Cc1ccnc(OC[C@@]23CCO[C@@H]2CCN(c2ncc(F)cn2)C3)n1`, with -6.92%; and `O=C(N1CCOCC1)N1CCc2ncnc(NC3CCC3)c2CC1`, with -14.5%. The result for `O=c1[nH]nc2c(S(=O)(=O)N3CCCCC3)cccn12` reads -0.253%; that for `Cc1cccc(C)c1NCc1noc(C2CC2)n1`, 0.946%; that for `CCOCCC(=O)N1Cc2cnc(-c3ccccc3)nc2C1`, -12.5%. The result for `COCCN1CCC(c2nc3c([nH]2)CC(C)(C)CNC3=O)CC1` reads -4.63%; that for `Cn1ccnc1CN1CCC(CCC(=O)Nc2ccccc2Cl)CC1`, -2.64%; that for `CCc1noc(CN(Cc2ccc3c(c2)OCO3)C2CCCC2)n1`, -10.9%. For the compound `O=C(NCCCn1nc2ccccn2c1=O)NC(C1CC1)C1CC1`, the cytotoxicity at 70.5 h is -16.5%. The result for `c1csc(-c2nc(CNC3CCc4ncnn4C3)cs2)c1` (centres undefined) reads -16.5%; that for `CC(C)Cc1noc(C2CCN(C(=O)c3cccs3)CC2)n1`, -0.0683%; that for `CC(SCCS(C)(=O)=O)c1nc(Cc2ccc(F)cc2)no1` (centres undefined), -0.925%. As for `CCc1noc(C(C)N2CCN(CC(C)C)CC2)n1` (centres undefined), the cytotoxicity at 70.5 h was 12.8%. Then `c1ccc2c(c1)ccn2CCCNC1CCOC2(CCOCC2)C1` (centres undefined), with 32.9%; and `O=C1COC2(CCN(C(=O)[C@H]3CCCO3)CC2)CN1Cc1ccccn1`, with 17.4%; and `CC(=O)NCCc1ccc(S(=O)(=O)N(C)C(C)CC(C)C)s1` (centres undefined), with -7.26%. The result for `CC(C)c1nn(C)c(N2CCOCC2)c1CNCCC(=O)N(C)C` reads 22.2%; that for `O=C(C1CC(c2ccccc2)=NO1)N1CCCCc2ccccc21` (centres undefined), -7.24%. With `CCn1cc(C(=O)NCc2csc(C3CC3)n2)c(C)n1`, the cytotoxicity at 70.5 h was -3.62%. With `CN(C)C(=O)N1CCC2(CCCN(c3ncccn3)C2)C1` (centres undefined), the cytotoxicity at 70.5 h worked out at 5.18%.

In the case of `COCCN1CCN(C(C)c2nc(C3CC3)no2)CC1` (centres undefined), the cytotoxicity at 70.5 h was found to be 17%. Regarding `Cc1ccc(O)c(CN2CCc3nc(-c4cccnc4)nc(O)c3C2)c1`, the cytotoxicity at 70.5 h was -5.78%. The result for `O=C(c1ccco1)N1CCC(n2nc(-c3ccco3)ccc2=O)CC1` reads -3.82%. The result for `CCc1ccccc1Nc1noc2c1CN(C(=O)c1ccn(C)n1)CC2` reads 2.97%; that for `CN(C)C(=O)CN1CCC2(C1)CN(CC1CCOC1)C2` (centres undefined), 11.8%. Then `O=C(NCCc1ccccn1)C1(n2cnnn2)CCCCC1`, with 14.5%; and `O=C(NCc1ccc(-n2cncn2)nc1)c1cc[nH]n1`, with -4.63%. With `Cn1cc(CN2C[C@@H]3COC[C@]3(CNC(=O)c3ccsc3)C2)cn1`, the cytotoxicity at 70.5 h is -5.87%.

On to `O=S(=O)(C1CC1)N1CCc2ncc(Cn3cccn3)n2CC1`, for which the cytotoxicity at 70.5 h was -1.43%. In the case of `Cc1ccc(N2CCC3(CC2)CC(OCC(C)C)C3)nn1`, the cytotoxicity at 70.5 h is -8.68%. Turning to `CCOC(C)C(=O)NCc1cccc(CN2CCCCCC2)c1` (centres undefined), the cytotoxicity at 70.5 h was -2.85%. The result for `CC[C@@]1(O)CCN(C(=O)c2ccc(OC(F)F)cc2)C[C@H]1O` reads -4.22%. Then `CN(C)Cc1nnc(C2CCN(C(=O)CCc3cccs3)CC2)n1C`, with -8.36%; and `CC(Cn1ccnc1)NC(=O)Nc1ccccn1` (centres undefined), with 10.5%. The result for `Cc1ccc(N2CCC3(CCN(Cc4csc(C)n4)C3=O)C2)nn1` (centres undefined) reads -3.25%. Consider `CN(C)CC1CN(Cc2ccc3c(c2)OCO3)Cc2nccn2C1` (centres undefined), for which the cytotoxicity at 70.5 h is 27.2%. Take `CN1C[C@@H](N)C[C@H]1C(=O)N1CCC(Cc2ccc(F)cc2)CC1`: the cytotoxicity at 70.5 h was determined as 0.737%. Then `CN(C)C(=O)COCC1CN(Cc2ccoc2)Cc2nnn(C)c21` (centres undefined), with 15%.

In the case of `CC(C(=O)Nc1cnn(CC(N)=O)c1)c1ccc(Cl)s1` (centres undefined), the cytotoxicity at 70.5 h was -4.91%. The result for `CN(C)C1CCN(Cc2cnc(S(C)(=O)=O)n2CC2CCCCC2)C1` (centres undefined) reads -7.41%. The result for `Cc1cc(NC(=O)NCC2CCOC2)no1` (centres undefined) reads -11.6%. Then `O=C(O)Cc1cnc(-c2c(Cl)cccc2Cl)s1`, with -12.9%; and `Cc1ccccc1-c1noc(CN2CC(n3cccn3)C2)n1`, with -5.02%. With `COCCNc1c(C#N)c2c(c3nncn13)CN(C)CC2`, the cytotoxicity at 70.5 h was -5.01%. Turning to `O=C1N(c2ccsc2)CCC12CCCN(c1ncc(F)cn1)C2` (centres undefined), the cytotoxicity at 70.5 h is -9.83%.

For the compound `COCC1CCN(S(=O)(=O)N2C[C@@H](C)[C@](O)(C3CC3)C2)CC1`, the cytotoxicity at 70.5 h was -1.25%. Turning to `COC(=O)CNC(=O)c1cn(Cc2ccccc2F)nn1`, the cytotoxicity at 70.5 h is -5.61%.

`O=C(C1=CC2(CCNCC2)c2ccccc21)N1CCCC1`: the cytotoxicity at 70.5 h is -14.7%. The result for `O=C(Cn1ccc2ccc(Br)cc21)NCc1ccc(C(=O)O)cc1` reads -6.34%; that for `O=C(CCSC1CCc2ccccc2NC1=O)NCCCO` (centres undefined), -12.2%.

For the compound `Cc1ccc(F)c2c1CCCN2Cc1cc(=O)n(C)c(=O)n1C`, the cytotoxicity at 70.5 h is -7.78%. The result for `CN1CCCN(CCCNC2CCc3cc4c(cc32)OCCO4)CC1` (centres undefined) reads 8.36%; that for `O=C1NCCCN1Cc1nc(-c2ccc(N3CCCCC3)cc2)no1`, -1.73%; that for `CCSc1ncc(-c2nccn2CCN(C)C)cn1`, 8.9%.

For `CN(CCc1noc(C2CC2)n1)C(=O)C1(N2CCCC2)CCCC1`, the cytotoxicity at 70.5 h is -3.64%.
